Patent publication US20250387410A1, “TREATMENT OF ANTI-VEGF REFRACTORY OPHTHALMIC RETINAL EYE CONDITIONS” (Eye Co Pty Ltd., priority 2022, published 2025)
“Also recorded” adds a separate entry of the source.

Columns and labels:
MIO-M1 cells = assay: MTT assay, cell viability of MIO-M1 cells; assay type: cell-based, human
From the text: (§1) The immortalised retinal cells used were as follows: MIO-M1 cells (Muller cell-derived; Müller 1 Moorefields, Institute of Ophthalmology, Dr A. Limb, Institute of Ophthalmology, University College, UK); ARPE19 (RPE-derived; ATCC CRL-2302, American Tissue Culture Collection, VA, USA); and 661W cells (photoreceptor-like derived; kindly gifted by Dr Muayyad R. Al-Ubaidi, Department of Cell Biology, University of Oklahoma Health Sciences Centre, Oklahoma City, OK, USA). Cells were authenticated and validated from Cell Bank Australia.
(§2) The immortalised retinal cell lines MIO-M1, 661W and ARPE19 were used to undertake the MTT assay to assess cell metabolic activity, based on the cell's availability of NAPDH. Treatments included exposure to one of FA (10-0.01 μg/μl, provided by Professor Ben Boyd, Monash University, Australia), TA (10-0.01 μg/p, Honeywell, USA) and Dexamethasone (10-0.0001 μg/μl, Sigma-Aldrich, MO, USA). All corticosteroids used in vitro were dissolved in 20% dimethyl sulfoxide (DMSO) (Sigma-Aldrich, MO, USA) and ultrapure endotoxin 0.1M PBS (Thermo Fisher Scientific, MA, USA). At the 12-hour time point following addition of the corticosteroid, 10p of MTT reagent (Roche, Switzerland) was added to each well. To protect against light, plates were wrapped in foil and stored in the dark at 37° C. for 4 hours at 5.0% CO2. Cells were monitored using a bright field Zeiss Axiovert 200 inverted microscope (Carl Zeiss Meditec, Dublin, CA. USA) for formation of insoluble purple formazan precipitate crystals in viable cells. Subsequently 100p of MTT solubilisation solution was added and once again incubated in darkness at 37° C., 5.0% CO2 for 24 hours. Quantification of the MTT assay was performed by measuring the absorbance at 570 nm using Tecan Infinite® 200 PRO (Tecan, Mannedorf, Switzerland).

ARPE19 cells = assay: MTT assay, cell viability of ARPE19 cells; assay type: cell-based, human
From the text: as §1, §2

661W cells = assay: MTT assay, cell viability of 661W cells; assay type: cell-based, human
From the text: as §1, §2

[1] = test system: Il-1b-stimulated MIO-M1 cells; assay: Co-incubation with selective receptor antagonists in Il-1b-stimulated MIO-M1 cells; assay type: cell-based, human; settings: stimulated Muller (MIO-M1) cells, receptor blockers
Procedure: FIG. 3 Contribution of glucocorticoid and mineralocorticoid receptor signalling to the anti-inflammatory effect of FA in vitro.
IL-1β and TNF-α were administered to MIO-M1 cells to initiate an inflammatory response in order to test the anti-inflammatory properties of the selected corticosteroids. MIO-M1 cells were grown to a cell density of 50,000 cells per well in a 24 well plate using growth media and foetal bovine serum as described (Section 2.1.1). MIO-M1 cells were challenged with either 1 ng/μl of IL-1β or TNF-α (R&D Systems, MN, USA). Experimental wells were treated with either 1 μg/μl FA, TA or Dexamethasone. Twelve hours post addition, growth medium was removed from each well and replaced with 860 μl of TRIzol (Thermo Fisher Scientific, MA, USA), agitated approximately 20 times and then placed in a clean 1.5 ml Eppendorf tube to extract ribonucleic acid (RNA).
Following purification of RNA, cDNA was synthesized using the Bioline Tetro kit (Bioline, Australia) as per the manufacturer's instructions. Quantitative Real Time Polymerase Chain Reaction (QRT-PCR) was undertaken to profile gene expression changes in animal and cell culture samples. TaqMan hydrolysis probes (Applied Biosystems, USA) and Gene Expression Master Mix (Applied Biosystems, USA) were used. A clear 384 well plate (Applied Biosystems, USA) was used with each biological sample plated in duplicate. A reaction mixture per sample was set up and included 0.5 μl cDNA, 4 μl Rnase Free Water, 5 μl Gene Expression Master Mix and 0.5 μl Taqman Primer Probe (Thermo Fisher Scientific), as listed in Table 2.5. The amplification of each sample was undertaken using a QuantStudio 12K Flex QRT-PCR machine (Applied Biosystems, USA). GAPDH was used as the reference gene using the comparative cycle threshold (Ct) method (ΔΔCt), as it is known not to change expression following retinal photo-oxidative damage. Data was analysed using the QuantStudio 12K Flex Software (Applied Biosystems, USA).

[2] = test system: C57BL/6J mice, photo-oxidative damage (PD); assay: Photo-oxidative damage (PD) model of retinal degeneration, intravitreal injection; assay type: in vivo, mouse; settings: for ONL thickness (OCT): 1-2 mm and 2-3 mm from the optic nerve, about 1 mg/ml in vitreous; for ONL thickness (OCT) / a-wave and b-wave ERG responses: versus controls; for a-wave and b-wave ERG responses: scotopic; for IBA1+ macrophages in the outer retina: versus control
From the text: All experiments conducted were in accordance with the ARVO Statement for Use of Animals in Ophthalmic and Vision Research, and with approval from the ANU Animal Experimentation Ethics Committee (AEEC, protocol #A2014/56). C57BL/6J mice aged 60 post-natal days were used in this study. Animals were born, reared and held under dim light conditions (5 lux) prior to photo-oxidative damage.
In vivo cross-sectional and fundus images of the mouse retina were acquired using Optical Coherence Tomography (OCT).
Intravitreal injections were performed on C57BL/6J mice aged 60 post-natal days. Treatments included exposure to FA or TA dissolved in Suspension (comprised of 0.5% w/v carboxymethyl cellulose and 0.4% v/v Tween 80). The final concentration of drug in the vitreous chamber is estimated to be as 1 mg/ml.
Age-matched C57BL/6J mice (60 post-natal days) were exposed to continuous 100K lux white LED light for 5 days with access to food and water ad libitum. During this time, 1% atropine sulphate (Minims 1% atropine sulphate eye drops; Bausch and Lomb, USA) was administered to both eyes twice daily to dilate the pupils. Animals were subsequently euthanised with carbon dioxide (CO2).
Electroretinography (ERG) was used to assess the retinal function response of rodents to full-field flash stimuli under scotopic conditions. Dim-reared control and photo-oxidative damaged animals were used, using known methods.
Animals were dark-adapted overnight before the commencement of ERG experiments. Animals were anaesthetised as previously described, and all retinal recordings were undertaken in a dark room with minimal red light source.
Terminal deoxynucleotidyl transferase (Tdt) dUTP nick end labelling (TUNEL) is an established technique used to detect apoptotic and necrotic cells.
The retina was evenly divided into 8 quadrants. Each quadrant was viewed using a confocal microscope (LSM 5, Zeiss, Germany) and TUNEL^+ and IBA1^+ cells were identified and counted. Data were graphed and analysed using Prism 6 software (GraphPad Software, CA, USA).

[3] = 10-0.01 μg/μl, 12 h, compared to DMSO-only group
[4] = 5 days PD, intravitreal, listed as Suspension+FA

CC(=O)OCC(=O)[C@@]1(O)CC[C@H]2[C@@H]3CCC4=CC(=O)CC[C@]4(C)[C@@]3(F)[C@@H](O)C[C@@]21C [FA, 9-α-Fluoro-11 β. 17 α, 21-trihydroxy-4-pregnene-3, 20 dione acetate]
viability of MIO-M1 cells at 1 μg/μl (MIO-M1 cells; 1 μg/μl): does not significantly alter cell viability | viability of MIO-M1 cells at the highest concentration (MIO-M1 cells; 10 ug/uL, compared to DMSO-only group): slight reduction | viability of MIO-M1 cells (MTT assay) (MIO-M1 cells; [3]): do not induce toxicity; also recorded: no significant effect | viability of ARPE19 cells at 1 μg/μl (ARPE19 cells; 1 μg/μl): does not significantly alter cell viability | viability of ARPE-19 cells (MTT assay) (ARPE19 cells; [3]): do not induce toxicity; also recorded: no significant effect | viability of 661W cells at 1 μg/μl (661W cells; 1 μg/μl): does not significantly alter cell viability | viability of 661W cells (MTT assay) (661W cells; [3]): do not induce toxicity; also recorded: no significant effect | receptor mediating the impact on expression of CCL2, IL-6 and IL-8 [1]: mediated through the glucocorticoid receptor; also recorded: dependent on glucocorticoid receptor signalling | ONL thickness (OCT) ([2]; 5 days PD, intravitreal): significant preservation | ONL thickness (OCT) [2, 4]: significantly greater | a-wave and b-wave ERG responses ([2]; 5 days PD, intravitreal): significantly larger | a-wave and b-wave ERG responses [2, 4]: significantly higher | IBA1+ macrophages in the outer retina ([2]; 5 days PD, intravitreal): significant reduction | IBA1+ macrophages in the outer retina [2, 4]: significant decrease | TUNEL+ photoreceptors (outer retina) ([2]; 5 days PD, intravitreal, versus vehicle/controls): significantly fewer | photoreceptor survival in PD ([2]; intravitreal injection, mice): improves photoreceptor survival
